Earlier results, collected in patent US11160765B2, “Compositions and methods of treating fungal infections of the nails” (KBR Incorporated, priority 2018, dated 2021).

Tested on: Candida albicans

SMILES | proteinase, phospholipase secretion, and dimorphism in Candida albicans
C=CCSSCC=C [diallyl disulphide (DADS0, diallyl disulphide] | significantly inhibit
C=CCSCC=C [diallyl sulphide (DAS), diallyl sulphide] | significantly inhibit
